Source: ChEMBL document CHEMBL5344425, “Discovery of 5-(Pyrimidin-2-ylamino)-1H-indole-2-carboxamide Derivatives as Nur77 Modulators with Selective and Potent Activity Against Triple-Negative Breast Cancer” (J Med Chem, 2023)
The source made the active and inactive calls. The calls are words filed in the database; no cut-off is given here.

How the values were obtained:
[1] = molecular target: T1, Nuclear receptor subfamily 4immunitygroup A member 1 (Homo sapiens, UniProt P22736); experiment: Binding affinity to His-tagged Nur77 ligand binding domain (unknown origin) at 10 uM by surface plasmon resonance assay; conditions: filed as modulator
T47D = experiment: Antiproliferative activity against human T47D cells transfected with Nur77 siRNA assessed as inhibition of cell growth measured after 24 hrs by MTT assay; assay type: functional, cell-based
SW-620 = experiment: Antiproliferative activity against human SW620 cells assessed as inhibition of cell growth measured after 24 hrs by MTT assay; assay type: functional, cell-based; conditions: SW-620, 24 h
HCT-116 = experiment: Antiproliferative activity against human HCT-116 cells assessed as inhibition of cell growth measured after 24 hrs by MTT assay; assay type: functional, cell-based; conditions: HCT-116, 24 h
Bel-7402 = experiment: Antiproliferative activity against human Bel-7402 cells assessed as inhibition of cell growth measured after 24 hrs by MTT assay; assay type: functional, cell-based; conditions: Bel-7402, 24 h
[2] = molecular target: T1, Nuclear receptor subfamily 4immunitygroup A member 1; experiment: Antagonist activity at Nur77 ligand binding domain (unknown origin) transfected in HEK293T cells cotransfected with pG5-Luc assessed as inhibition of receptor transcriptional activity at 1 uM measured after 12 hrs by luciferase reporter gene assay; assay type: cell-based; conditions: filed as antagonist
[3] = molecular target: T2, Retinoic acid receptor RXR-alpha (Homo sapiens) (UniProt P19793); experiment: Antagonist activity at RXRalpha (unknown origin) transfected in HEK293T cells cotransfected with pG5-Luc assessed as inhibition of receptor transcriptional activity at 2 uM measured after 12 hrs by luciferase reporter gene assay; assay type: cell-based
T2 sequence (whole entry): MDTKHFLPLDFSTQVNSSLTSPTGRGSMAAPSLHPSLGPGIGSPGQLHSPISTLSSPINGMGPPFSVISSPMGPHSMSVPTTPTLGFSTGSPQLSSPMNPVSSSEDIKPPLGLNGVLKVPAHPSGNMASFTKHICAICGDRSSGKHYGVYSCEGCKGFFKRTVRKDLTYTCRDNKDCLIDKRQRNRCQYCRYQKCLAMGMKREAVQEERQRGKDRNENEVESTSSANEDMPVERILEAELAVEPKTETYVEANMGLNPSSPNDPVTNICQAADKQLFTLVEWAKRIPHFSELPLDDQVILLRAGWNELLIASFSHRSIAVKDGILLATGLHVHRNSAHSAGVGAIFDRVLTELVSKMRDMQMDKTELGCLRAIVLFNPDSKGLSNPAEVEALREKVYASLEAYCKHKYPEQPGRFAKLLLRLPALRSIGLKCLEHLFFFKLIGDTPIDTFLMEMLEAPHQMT

MDA-MB-231 [4] = experiment: Induction of apoptosis in human MDA-MB-231 cells transfected with Myc-Nur77 R184A mutant assessed as PARP cleavage at 2 to 5 uM measured after 6 hrs by western blot analysis; assay type: functional, cell-based; conditions: dose 2-5 µM
[5] = molecular target: T1, Nuclear receptor subfamily 4immunitygroup A member 1; experiment: Induction of degradation of Myc-tagged Nur77 (unknown origin) transfected in human MDA-MB-231 cells at 2 to 5 uM measured after 6 hrs by western blot analysis; assay type: cell-based; conditions: dose 2-5 µM
MDA-MB-231 [6] = experiment: Induction of apoptosis in human MDA-MB-231 cells assessed as PARP cleavage measured after 6 hrs by western blot analysis; assay type: functional, cell-based; conditions: dose 0.5-5 µM
MDA-MB-231 [7] = experiment: Induction of apoptosis in human MDA-MB-231 cells transfected with Nur77 siRNA assessed as PARP cleavage at 0.5 to 2 uM measured after 6 hrs by western blot analysis; assay type: functional, cell-based; conditions: dose 0.5-2 µM
MDA-MB-231 [8] = experiment: Induction of apoptosis in human MDA-MB-231 cells transfected with ctr siRNA assessed as early apoptotic cells at 1 uM measured after 6 hrs by AnnexinV-FITC/PI staining based flow cytometry (reference value: 1.88%); assay type: functional
MDA-MB-231 [9] = experiment: Induction of apoptosis in human MDA-MB-231 cells transfected with ctr siRNA assessed as late apoptotic cells at 1 uM measured after 6 hrs by AnnexinV-FITC/PI staining based flow cytometry (reference value: 3.97%); assay type: functional
MDA-MB-231 [10] = experiment: Induction of apoptosis in human MDA-MB-231 cells transfected with ctr siRNA assessed as loss of mitochondrial membrane potential at 2 uM measured after 6 hrs by JC-1 staining based flow cytometry (reference value: 13.93%); assay type: functional
MDA-MB-231 [11] = experiment: Induction of apoptosis in human MDA-MB-231 cells transfected with Nur77 siRNA assessed as loss of mitochondrial membrane potential at 2 uM measured after 6 hrs by JC-1 staining based flow cytometry (reference value: 6.1%); assay type: functional
MDA-MB-231 [12] = experiment: Induction of apoptosis in human MDA-MB-231 cells assessed as PARP cleavage at 2.5 uM pretreated with caspase inhibitor, Z-VAD-FMK for 4 hrs followed by compound addition and measured after 6 hrs by western blot analysis; assay type: functional, cell-based
MDA-MB-231 [13] = experiment: Induction of apoptosis in human MDA-MB-231 cells assessed as PARP cleavage at 2.5 uM pretreated with protein synthesis inhibitor, cycloheximide for 4 hrs followed by compound addition and measured after 6 hrs by western blot analysis; assay type: functional, cell-based
MDA-MB-231 [14] = experiment: Induction of apoptosis in human MDA-MB-231 cells assessed as PARP cleavage at 2.5 uM pretreated with mTOR inhibitor, rapamycin for 4 hrs followed by compound addition and measured after 6 hrs by western blot analysis; assay type: functional, cell-based
MDA-MB-231 [15] = experiment: Induction of apoptosis in human MDA-MB-231 cells assessed as increase in Tunel-488 […] at 1 uM measured after 6 hrs by confocal microscopy; assay type: functional, cell-based
[16] = molecular target: T1, Nuclear receptor subfamily 4immunitygroup A member 1; experiment: Modulation of Nur77 in human MDA-MB-231 cells assessed as increase in TP53 phosphorylation at Ser37 residue at 0.31 to 5 uM measured after 6 hrs by western blot analysis; assay type: cell-based; conditions: filed as modulator, dose 0.31-5 µM
[17] = molecular target: T1, Nuclear receptor subfamily 4immunitygroup A member 1; experiment: Modulation of Nur77 in human MDA-MB-231 cells assessed as increase in TP53 phosphorylation at Ser15 residue at 0.31 to 5 uM measured after 6 hrs by western blot analysis; assay type: cell-based; conditions: filed as modulator, dose 0.31-5 µM
[18] = Toxicity in Zebra fish AB embryo assessed as induction of morphological abnormalities at 1.25 uM measured after 24 to 72 hrs; design: species or system Danio rerio; conditions: zebrafish, time 24-72 hrs
MDA-MB-231 [19] = experiment: Antitumor activity against human MDA-MB-231 cells xenografted in BALB/c mouse assessed as tumor weight at 10 mg/kg, ip qd for 16 days (reference value: 1.17 gms); assay type: functional; conditions: time 16 day
MDA-MB-231 [20] = experiment: Antitumor activity against human MDA-MB-231 cells xenografted in BALB/c mouse assessed as increase in cleaved caspase-3 expression in tumor at 10 mg/kg, ip qd for 16 days by immunohistochemical staining based analysis; assay type: functional, organism-based; conditions: time 16.0 day
[21] = Toxicity in BALB/c mouse xenografted with human MDA-MB-231 cells assessed as morphological changes in spleen at 10 mg/kg, ip qd for 16 days by Hematoxylin-Eosin staining based analysis; assay type: organism-based; conditions: in vivo, 384 h, time 16 day
[22] = Selectivity index, ratio of IC50 for cytotoxicity against human MCF-10A cells to IC50 for antiproliferative activity against human MCF7 cells; assay type: toxicity, cell-based; conditions: MCF-10A cells versus MCF7 cells, read-out: Ratio IC50
[23] = Selectivity index, ratio of IC50 for cytotoxicity against human MCF-10A cells to IC50 for antiproliferative activity against human T47D cells; assay type: toxicity, cell-based; conditions: MCF-10A cells versus T47D cells, read-out: Ratio IC50

T1 sequence (P22736 whole entry, the tested form may be a part): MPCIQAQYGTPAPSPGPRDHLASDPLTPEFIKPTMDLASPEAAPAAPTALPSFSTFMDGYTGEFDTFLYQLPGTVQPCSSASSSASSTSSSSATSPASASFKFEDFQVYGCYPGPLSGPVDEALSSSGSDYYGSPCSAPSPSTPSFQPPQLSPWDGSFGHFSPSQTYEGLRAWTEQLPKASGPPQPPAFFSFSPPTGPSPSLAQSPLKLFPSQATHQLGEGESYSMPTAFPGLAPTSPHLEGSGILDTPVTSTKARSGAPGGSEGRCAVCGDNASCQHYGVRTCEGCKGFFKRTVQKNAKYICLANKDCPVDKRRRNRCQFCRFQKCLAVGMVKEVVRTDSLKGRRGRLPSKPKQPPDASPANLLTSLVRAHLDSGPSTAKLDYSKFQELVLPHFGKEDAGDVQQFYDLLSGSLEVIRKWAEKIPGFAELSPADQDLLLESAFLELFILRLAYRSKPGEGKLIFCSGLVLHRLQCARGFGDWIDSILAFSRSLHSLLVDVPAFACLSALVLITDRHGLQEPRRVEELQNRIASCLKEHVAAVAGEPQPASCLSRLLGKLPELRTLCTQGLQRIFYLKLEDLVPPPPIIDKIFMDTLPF

CCN(CC)CCCNC(=O)c1cc2cc(Nc3nccc(-c4sc(NC)nc4C)n3)ccc2[nH]1
Activity [1]: Active
IC50 (T47D): 6.34 µM
IC50 (SW-620): 18.1 µM
IC50 (HCT-116): 9.84 µM
IC50 (Bel-7402): 38.3 µM
inhibition [2]: Active
inhibition [3]: inactive
Activity (MDA-MB-231 [4]): inactive
Activity [5]: Active
Activity (MDA-MB-231 [6]): Dose-Dependent Effect
Activity (MDA-MB-231 [7]): inactive
Activity (MDA-MB-231 [8]): 11.24%
Activity (MDA-MB-231 [9]): 8.23%
Activity (MDA-MB-231 [10]): 68.69%
Activity (MDA-MB-231 [11]): 15.41%
Activity (MDA-MB-231 [12]): inactive
Activity (MDA-MB-231 [13]): Active
Activity (MDA-MB-231 [14]): Active
Activity (MDA-MB-231 [15]): Active
Activity [16]: Active
Activity [17]: Active
Activity [18]: Toxic
Activity (MDA-MB-231 [19]): 0.06 g
Activity (MDA-MB-231 [20]): Active
Activity [21]: Non-Toxic
selectivity ratio [22]: 66.7
selectivity ratio [23]: 45.7
